This note sets out measurements from US6432993B1, “Substituted fused heterocyclic compound” (Sankyo Company, Limited, priority 1997, dated 2002).

In general, melting point refers to the temperature, or range, at which the solid turns liquid.

Series [1] relates to lipid peroxide production, rat hepatic microsome. In words: Anti-lipid-peroxide action: inhibition of lipid peroxide production in rat hepatic microsome. The format is biochemical. The note with it: Wister rat hepatic microsome, ferrous sulfate/cysteine, 37° C. 30 minutes, thiobarbituric acid absorbance 535 nm. On the procedure:
Anti-lipid-peroxide Action
The inhibitory effect of the invention compound against the production of lipid peroxide was conducted using rat hepatic microsome.
To 400 μl of a 1:2 mixture of a buffer [a 0.1M aqueous tris(hydroxymethyl)aminomethane solution adjusted to pH 7.4 by hydrochloric acid] and a 0.15M aqueous potassium chloride solution were added 5 μl of a solution of a predetermined concentration of the test compound in dimethyl sulfoxide, and 100 μl of hepatic microsome prepared from Wister rat (10 week old), followed by stirring at 37° C. for 5 minutes. To initiate the reaction of said mixture, 10 μl of a 1:1 mixed solution of a 0.5 mM aqueous solution of ferrous sulfate 7 hydrate and a 50 mM aqueous cysteine solution was added and the resulting mixture was stirred at 37° C. for 30 minutes. 1 ml of a 10% aqueous solution of trichloroacetic acid was added to the reaction mixture to terminate the reaction. The reaction mixture was centrifuged at 3000 rpm at 5° C. for 10 minutes and the supernatant was separated. To 1.0 ml of the supernatant, 1.0 ml of 50% aqueous acetic acid containing 0.67% of thiobarbituric acid was added and the mixture was boiled at 100° C. for 15 minutes. After the resulting mixture was allowed to stand at room temperature for 15 minutes, the absorbance at the wavelength of 535 nm was measured. From the absorbance of the control measured without the test compound and that of the test compounds of a predetermined concentration, an inhibition rate (%) was determined and the 50% inhibition concentration of the test compound against lipid peroxide was determined.

A further series deals with T1, 5-lipoxygenase (Cavia porcellus, UniProt A0A286X958).
T1 sequence (A0A286X958 1-674): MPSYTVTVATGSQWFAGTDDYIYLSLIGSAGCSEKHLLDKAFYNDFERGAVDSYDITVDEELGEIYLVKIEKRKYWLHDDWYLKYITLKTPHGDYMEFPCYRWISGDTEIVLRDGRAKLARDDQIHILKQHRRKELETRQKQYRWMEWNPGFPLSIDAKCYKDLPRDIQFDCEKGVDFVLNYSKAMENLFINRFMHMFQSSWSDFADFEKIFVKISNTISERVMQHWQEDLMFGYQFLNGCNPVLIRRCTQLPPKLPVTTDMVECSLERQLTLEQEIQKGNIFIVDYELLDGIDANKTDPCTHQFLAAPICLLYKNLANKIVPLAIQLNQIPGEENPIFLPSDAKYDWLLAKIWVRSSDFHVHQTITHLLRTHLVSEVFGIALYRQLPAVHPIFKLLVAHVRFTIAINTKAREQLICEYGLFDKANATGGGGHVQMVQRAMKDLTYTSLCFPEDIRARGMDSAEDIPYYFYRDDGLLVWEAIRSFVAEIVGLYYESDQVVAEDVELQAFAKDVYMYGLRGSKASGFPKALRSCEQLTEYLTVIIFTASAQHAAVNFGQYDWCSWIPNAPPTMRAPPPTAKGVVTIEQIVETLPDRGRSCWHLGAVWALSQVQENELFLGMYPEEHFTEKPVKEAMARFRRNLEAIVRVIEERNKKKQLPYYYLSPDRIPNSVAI
In words: 5-Lipoxygenase inhibitory action (5-HETE formation, guinea pig polymorphonuclear leukocyte enzyme). The note with it: 25° C. 5 minutes, 5-HETE by HPLC, read-out: IC50 (50% inhibition concentration against 5-lipoxygenase) (converted). The format is biochemical. On the procedure:
5-Lipoxygenase Inhibitory Action
Into 5 μl of a solution of the test compound in dimethylsulfoxide, 750 μl of a 1/15M phosphate buffer (pH 7.4) which was prepared by dissolving a wrapper of phosphate buffer powder (Yatron) in 10 ml of water, 40 μl of a 30 mM aqueous calcium chloride solution, 50 μl of a 20 mM aqueous GSH (glutathione, reduced form) solution, 50 μl of a 40 mM aqueous ATP (adenosine-5-triphosphate) solution and 100 μl of guinea pig polymorphonuclear leukocyte enzyme were added, followed by stirring at 25° C. for 5 minutes. To initiate the reaction, 5 μl of […] (10 mg/ml ethanol) were added to said mixture and the mixture was stirred at 25° C. for 5 minutes. 50 μl of 2N hydrochloric acid were added to the reaction mixture to terminate the reaction. 2.0 ml of ethyl acetate containing an internal standard substance (internal standard substance: 2 μg/ml of isoamyl paraben) were then added to the reaction mixture. The resulting mixture was extracted for 1 minute by a mixer, followed by centrifugal separation at 3000 rpm for 5 minutes. The ethyl acetate layer was separated, evaporated to dryness under reduced pressure and then dissolved in 200 μl of acetonitrile. By high-performance liquid chromatography, the amount of 5-HETE formed was determined. From the determination of 5-HETE of the control without the test compounds and that of the test compounds, an inhibition rate (%) was found and the 50% inhibition concentration of the test compounds against 5-lipoxygenase was determined.

In series [2] the test system is KK mice which developed diabetes. In words: Hypoglycemic action in diabetic KK mice. Conditions: powdery food containing 0.01% test compound for three days, plasma glucose vs control; for inhibition in vivo at 0.01 % in diet: Mus musculus, po, 72 h, read-out: Blood sugar lowering rate (%). Format: in vivo. On the procedure: The blood sample was collected from the caudal vein of each of KK mice (4-5 month old) which developed diabetes and its blood sugar level was measured. The mice were then classified into groups (4 mice per group) so that they would be equal in the average of the blood sugar levels of the mice. For three days, powdery food (F-1, produced by Funabashi Farm) adjusted to contain the test compound in an amount of 0.01% was administered to mice. The mouse group to which the test compound was administered refers to “the medicine administered group”, while that to which the powdery food free of the test compound was administered refers to “the control”. After three days, the blood sample was collected from the caudal vein of each of the mice and the glucose concentration in the plasma obtained by centrifugal separation was measured by a glucose analyzer (“Glucoroder”, A&T Inc.). The blood-sugar lowering rate was calculated from the following equation:
Blood sugar lowering rate (%)=(average blood sugar level of the control−average blood sugar level of the medicine administered group)×100/the blood sugar level of the control

Structures are written as SMILES. Values after ≈ are worked out from the molar mass of the structure shown. Structures can show the parent of a compound that is named as a salt.

On to `Cc1cc(Oc2ccc3nc(COc4ccc(CC5SC(=O)NC5=O)cc4)n(C)c3c2)cc(C)c1N.Cl.Cl` (stereo not shown) [Example 8-2b, 5-{4-[6-(4-Amino-3,5-dimethylphenoxy)-1-methyl-1H-benzimidazol-2-ylmethoxy]benzyl}thiazolidine-2,4-dione dihydrochloride], for which the “IC50 (50% inhibition concentration against lipid peroxide)” value in series [1] is 3.2 µg/mL. For `Cc1cc(Oc2ccc3nc(COc4ccc(CC5SC(=O)NC5=O)cc4)n(C)c3c2)c(C)c(C)c1O` (stereo not shown) [Example 2-2a, 5-{4-[6-(4-Hydroxy-2,3,5-trimethylphenoxy)-1-methyl-1H-benzimidazol-2-ylmethoxy]benzyl}thiazolidine-2,4-dione], the “IC50 (50% inhibition concentration against lipid peroxide)” value in series [1] turned out to be 0.54 µg/mL (≈ 1.04 µM). Also, the IC50 on 5-lipoxygenase was 193 nM.

As for `Cc1cc(Oc2ccc3nc(COc4ccc(CC5SC(=O)NC5=O)cc4)n(C)c3c2)c(Cl)c(C)c1O.Cl` (stereo not shown) [Example 5b, 5-{4-[6-(2-Chloro-4-hydroxy-3,5-dimethylphenoxy)-1-methyl-1H-benzimidazol-2-ylmethoxy]benzyl}thiazolidine-2,4-dione hydrochloride], the “IC50 (50% inhibition concentration against lipid peroxide)” value in series [1] came out at 1.3 µg/mL. Moreover, the IC50 on 5-lipoxygenase was 923 nM. Consider `Cn1c(COc2ccc(CC3SC(=O)NC3=O)cc2)nc2ccc(Sc3ccccn3)cc21` (stereo not shown) [Example 13-2b, 5-{4-[1-Methyl-6-(pyridin-2-ylthio)-1H-benzimidazole-2-ylmethoxy]benzyl}thiazolidine-2,4-dione dihydrochloride], for which the inhibition in vivo at 0.01 % in diet in series [2] was 68.1%. Regarding `Cn1c(COc2ccc(CC3SC(=O)NC3=O)cc2)nc2ccc(Oc3ccc(-n4ccnc4)cc3)cc21` (stereo not shown) [Example 19-2, 5-{4-(6-[4-(Imidazole-1-yl)phenoxy]-1-methyl-1H-benzimidazole-2-ylmethoxy)benzyl}thiazolidine-2,4-dione dihydrochloride], the inhibition in vivo at 0.01 % in diet in series [2] was found to be 66.8%. For `Cn1c(COc2ccc(CC3SC(=O)NC3=O)cc2)nc2ccc(Oc3ccc(NC(=O)c4cccnc4)cc3)cc21` (stereo not shown) [Example 51, 5-{4-[6-(4-Nicotinoylaminophenoxy)-1-methyl-1H-benzimidazole-2-ylmethoxy]benzyl}thiazolidine-2,4-dione], the inhibition in vivo at 0.01 % in diet in series [2] was found to be 63.6%. Regarding `Cc1ccc(Sc2ccc3nc(COc4ccc(CC5SC(=O)NC5=O)cc4)n(C)c3c2)cc1` (stereo not shown) [Example 34-2b, 5-{4-[1-Methyl-6-(4-methylthiophenoxy)-1H-benzimidazole-2-ylmethoxy]benzyl}thiazolidine-2,4-dione hydrochloride], in series [2], the inhibition in vivo at 0.01 % in diet turned out to be 71.2%. Take `Cc1cc(O)ccc1Oc1ccc2nc(COc3ccc(CC4SC(=O)NC4=O)cc3)n(C)c2c1.Cl` (stereo not shown): the melting point was in the range of 165 to 168 °C. Turning to `Cc1cc(Oc2ccc3nc(COc4ccc(CC5SC(=O)NC5=O)cc4)n(C)c3c2)cc(C)c1O` (stereo not shown) [Example 4-2a, 5-{4-[6-(4-Hydroxy-3,5-dimethylphenoxy)-1-methyl-1H-benzimidazol-2-ylmethoxy]benzyl}thiazolidine-2,4-dione], the “IC50 (50% inhibition concentration against lipid peroxide)” value in series [1] is 0.83 µg/mL (≈ 1.65 µM). The IC50 at 5-lipoxygenase is 397 nM. Also, in series [2], the inhibition in vivo at 0.01 % in diet worked out at 67.5%. As for `Cn1c(COc2ccc(CC3SC(=O)NC3=O)cc2)nc2ccc(Oc3ccc(C#N)cc3)cc21` (stereo not shown) [Example 40, 5-{4-[6-(4-Cyanophenoxy)-1-methyl-1H-benzimidazole-2-ylmethoxy]benzyl}thiazolidine-2,4-dione hydrochloride], the inhibition in vivo at 0.01 % in diet in series [2] was found to be 66.4%. Turning to `Cn1c(COc2ccc(CC3SC(=O)NC3=O)cc2)nc2ccc(Oc3ccccn3)cc21` (stereo not shown) [Example 6-2, 5-{4-[6-(Pyridin-2-yloxy)-1-methyl-1H-benzimidazol-2-ylmethoxy]benzyl}thiazolidine-2,4-dione], the inhibition in vivo at 0.01 % in diet in series [2] was found to be 62.6%.

`Cl.Cn1c(COc2ccc(CC3SC(=O)NC3=O)cc2)nc2ccc(Sc3cc(C(C)(C)C)c(O)c(C(C)(C)C)c3)cc21.Cn1c(COc2ccc(CC3SC(=O)NC3=O)cc2)nc2ccc(Sc3cc(C(C)(C)C)c(O)c(C(C)(C)C)c3)cc21` (stereo not shown) [Example 7-2a, 5-{4-[6-(3,5-Di-t-butyl-4-hydroxyphenylthio)-1-methyl-1H-benzimidazol-2-ylmethoxy]benzyl}thiazolidine-2,4-dione 1/2 hydrochloride]: the “IC50 (50% inhibition concentration against lipid peroxide)” value in series [1] was found to be 0.65 µg/mL. Further, the “Blood sugar lowering rate (%)” value in series [2] stood at 71.7%. In the case of `Cn1c(COc2ccc(CC3SC(=O)NC3=O)cc2)nc2ccc(Oc3ccc(O)cc3)cc21` (stereo not shown) [Example 3-2, 5-{4-[6-(4-Hydroxyphenoxy)-1-methyl-1H-benzimidazol-2-ylmethoxy]benzyl}thiazolidine-2,4-dione], in series [2], the inhibition in vivo at 0.01 % in diet was determined as 60.1%. `Cc1cc(Oc2ccc3nc(COc4ccc(CC5SC(=O)NC5=O)cc4)n(C)c3n2)c(C)c(C)c1O` (stereo not shown) [Example 1-2a, 5-{4-[5-(4-Hydroxy-2,3,5-trimethylphenoxy)-3-methyl-3H-imidazo[4,5-b]pyridin-2-ylmethoxy]benzyl}thiazolidine-2,4-dione]: the “IC50 (50% inhibition concentration against lipid peroxide)” value in series [1] was determined as 0.97 µg/mL (≈ 1.87 µM). Besides, the IC50 at 5-lipoxygenase is 1140 nM. Turning to `Cc1cc(Oc2ccc3nc(COc4ccc(CC5SC(=O)NC5=O)cc4)n(C)c3c2)c(C)c(C)c1O` (stereo not shown) [Example 2-2b, 5-{4-[6-(4-Hydroxy-2,3,5-trimethylphenoxy)-1-methyl-1H-benzimidazol-2-ylmethoxy]benzyl}thiazolidine-2,4-dione hydrochloride], the inhibition in vivo at 0.01 % in diet in series [2] is 49.2%. Same read-out and setting: to `Cc1cc(Oc2ccc3nc(COc4ccc(CC5SC(=O)NC5=O)cc4)n(C)c3n2)c(C)c(C)c1O` (stereo not shown) [Example 1-2b, 5-{4-[5-(4-Hydroxy-2,3,5-trimethylphenoxy)-3-methyl-3H-imidazo[4,5-b]pyridin-2-ylmethoxy]benzyl}thiazolidine-2,4-dione hydrochloride] belongs 48.1%.
